In US20030203888A1, “Chromophores” (priority 2001, published 2003):

Experiments:
[1] = Solubility in water of the chloride salts
[2] = target: BSA (Bos taurus, UniProt P02769); experiment: 'Blank' bioconjugation: non-covalent binding of unreactive fluorophore to BSA (gel filtration, UV analysis); details: after PD-10 gel filtration
From the text: (§1) Experiments have been undertaken to determine the level of non-covalent binding of fluorophore to the protein surface (BSA and avidin). ‘Blank’ bioconjugations using mixtures of the unreactive DPCH and DPBC derivatives 2,3-dihydroxy-5-(4-methoxyphenyl)-15-(4-acetomidophenyl)chlorin (higher Rf regioisomer) and 2,3,12,13-tetrahydroxy-5-(4-acetomidophenyl)-15-(4-methoxyphenyl) bacteriochlorin (higher Rf […] stereoisomer) with both BSA and avidin have been carried out and the resultant protein solutions have been purified by gel filtration (PD-10) as described for the reactive probes described earlier. […] For BSA or avidin, 1 unreactive DPCH binds to each protein molecule, whereas DPBC is less than 1 due probably to its increased polarity and non-amphiphilic nature.

[3] = target: avidin (Gallus gallus, UniProt P02701); experiment: 'Blank' bioconjugation: non-covalent binding of unreactive fluorophore to avidin (gel filtration, UV analysis); details: after PD-10 gel filtration
Chain of avidin (P02701 25-152, species assumed): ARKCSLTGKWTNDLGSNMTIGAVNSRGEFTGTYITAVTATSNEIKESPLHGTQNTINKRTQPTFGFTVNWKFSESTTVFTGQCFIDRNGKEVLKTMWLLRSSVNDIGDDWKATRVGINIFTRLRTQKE
From the text: as §1

[4] = tested on: Colo 320 cells; experiment: FACS conjugate binding analysis; type: cell-based, human; details: FITC detection, 3 repeats
Procedure: Wash flask of cells with phosphate buffered saline (PBS) pH 7.3. Treat with 5 mM EDTA in PBS for 10 min at 37C. Tap flask to dislodge cells, place in 50 mL polypropylene tube and pellet at 400 g 3 min. Resuspend in 10 mL PBS and count cells. Place 2×10^5 in FACS tube (Falcon 2054) and wash with 1 mL PBS by centrifugation (400 g 3 min) and resuspension by agitation
Block cells in 500 μL 2% Marvel milk powder in PBS, 1% BSA 30 min RT
Wash cells in 1 mL PBS/BSA/Azide centifuge and resuspend pellet (as above)
Add 10 μL appropriate antibody dilution. Incubate on ice 1 h
Add 50 μL Rabbit anti-mouse:FITC (Serotec, 1/100 dilution) and incubate on ice in the dark 1 h
Wash cells in 1 mL PBS/BSA/Azide centiflige (as above) and resuspend pellet in 400 μL PBS/BSA/Azide.
Run samples through FACS machine using CellQuest acquisition software to collect data.
FACS analyses were run in accordance with Methodology Description 5.

[5] = tested on: Colo 320 cells; experiment: Standard photocytotoxicity test (MTT); type: cell-based, human; details: 3.6J/cm2 filtered red light, MTT % cell survival
Procedure: Cells are grown to confluence or appropriate density then washed 2 times with PBS (phosphate buffered saline) to eliminate all trace of FBS (fretal bovine serum). Cell density is adjusted to 1.5×10^6 cells/ml in medium without FBS and these are then incubated for 1 hour in the dark (37 degrees C., 5% CO2) with a range of photosensitiser/conjugate concentrations. Post incubation, cells are washed further with medium (without FBS)to eliminate unbound photosensitiser, then resuspended and seeded in 96 wells plates (1×10^5 cells/well) in quadruplate. Plates are then either irradiated (3.6J/cm2 of filtered red light […]) or left in the dark as “dark toxicity controls” for the same period of time (14 minutes).Five microliters (5%/well) of FBS is added after the irradiation/dark period and the plates are returned to the incubator overnight. Twenty to 24 hours after treatment, 10 μl of MTT solution (Sigma Thiazolyl blue, 4.8×10^−4M in PBS)is added per well and the plates are returned to the incubator until color develops (between 1 and 4 hours). A solution of acid-alcohol (100 μl/well of 0.04N HCL in isopropanol) is the added and mixed thoroughly to dissolve the dark blue crystals. Plates are then read at 570 nm in a microplate reader and the % cell survival calculated against controls. […]

Chain of BSA (P02769 25-607): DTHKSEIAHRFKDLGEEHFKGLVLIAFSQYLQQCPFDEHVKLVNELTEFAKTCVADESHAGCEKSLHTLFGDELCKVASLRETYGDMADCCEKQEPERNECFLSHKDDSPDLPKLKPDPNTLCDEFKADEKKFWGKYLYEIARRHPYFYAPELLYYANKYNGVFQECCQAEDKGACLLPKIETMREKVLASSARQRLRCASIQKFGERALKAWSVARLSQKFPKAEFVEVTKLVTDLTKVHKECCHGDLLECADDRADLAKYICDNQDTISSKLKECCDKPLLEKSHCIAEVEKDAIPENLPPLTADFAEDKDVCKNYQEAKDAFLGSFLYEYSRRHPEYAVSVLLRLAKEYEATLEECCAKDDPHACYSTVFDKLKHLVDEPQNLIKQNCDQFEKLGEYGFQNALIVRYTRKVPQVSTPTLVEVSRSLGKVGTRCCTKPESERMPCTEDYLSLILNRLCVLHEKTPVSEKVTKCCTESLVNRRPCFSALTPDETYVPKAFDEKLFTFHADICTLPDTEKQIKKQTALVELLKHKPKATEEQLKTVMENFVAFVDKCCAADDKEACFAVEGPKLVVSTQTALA

## Oc1cc(O)cc(-c2c3nc(c(-c4cc(O)cc(O)c4)c4ccc([nH]4)c(-c4cc(O)cc(O)c4)c4nc(c(-c5ccc(N=C=S)cc5)c5ccc2[nH]5)C=C4)C=C3)c1
other
  melting point: > 350 °C (dec.)

## S=C=Nc1ccc(-c2c3nc(c(-c4ccncc4)c4ccc([nH]4)c(-c4ccncc4)c4nc(c(-c5ccncc5)c5ccc2[nH]5)C=C4)C=C3)cc1
other
  melting point: > 350 °C (dec.)

## S=C=Nc1ccc(-c2c3nc(c(-c4cccnc4)c4ccc([nH]4)c(-c4cccnc4)c4nc(c(-c5cccnc5)c5ccc2[nH]5)C=C4)C=C3)cc1
other
  melting point: > 350 °C (dec.)

## 5-(4-Isothiocyanatophenyl)-10,15,20-tris(4-N-methylpyridiniumyl) porphyrin Trichloride [Example 6]
[1]
  solubility in water: water soluble

## COc1ccc(-c2c3nc(cc4ccc([nH]4)c(-c4ccc(NC(C)=O)cc4)c4nc(cc5ccc2[nH]5)C=C4)C(O)C3O)cc1 (stereo not shown) [Example 10, 17,18-Dihydroxy-5-(4-acetamidophenyl)-15-(4-methoxyphenyl)chlorin]
[2]
  unreactive fluorophore molecules non-covalently bound to each protein molecule: 1
[3]
  unreactive fluorophore molecules non-covalently bound to each protein molecule: 1

## COc1ccc(-c2c3nc(cc4ccc([nH]4)c(-c4ccc(NC(C)=O)cc4)c4nc(cc5ccc2[nH]5)C(O)C4O)C(O)C3O)cc1 (stereo not shown) [Example 12, 7,8,17,18-tetrahydroxy-5-(4-acetamidophenyl)-15-(4-methoxyphenyl)bacteriochlorin]
[2]
  unreactive fluorophore molecules non-covalently bound to each protein molecule: less than 1
[3]
  unreactive fluorophore molecules non-covalently bound to each protein molecule: less than 1

## Nc1ccc(-c2c3nc(c(-c4cc(O)cc(O)c4)c4ccc([nH]4)c(-c4cc(O)cc(O)c4)c4nc(c(-c5cc(O)cc(O)c5)c5ccc2[nH]5)C=C4)C=C3)cc1 [OH6-NH2, 5-(4-Aminophenyl)-10,15,20-tris(3,5-dihydroxyphenyl)porphyrin]
other
  melting point: > 350 °C (dec.)

B1: OH6/17.1A: OH6 conjugated with 17.1A monoclonal antibody, MRs of 2.5, 5, 10 and 20 (conjugate, chains of the INN, looked up)
VH: QVQLQQSGAELVRPGTSVKVSCKASGYAFTNYLIEWVKQRPGQGLEWIGVINPGSGGTNYNEKFKGKATLTADKSSSTAYMQLSSLTSDDSAVYFCARDGPWFAYWGQGTLVTVSA
VL: NIVMTQSPKSMSMSVGERVTLTCKASENVVTYVSWYQQKPEQSPKLLIYGASNRYTGVPDRFTGSGSATDFTLTISSVQAEDLADYHCGQGYSYPYTFGGGTKLEIK
modifications: conjugated to OH6
[4]
  binding to Colo 320 cells: has bound to the cells
[5]
  photocytotoxicity following irradiation: significant increase in cytotoxicity on irradiation

B2: PYR/17.1A: PYR conjugated with 17.1A monoclonal antibody (conjugate, chains of the INN, looked up)
VH: QVQLQQSGAELVRPGTSVKVSCKASGYAFTNYLIEWVKQRPGQGLEWIGVINPGSGGTNYNEKFKGKATLTADKSSSTAYMQLSSLTSDDSAVYFCARDGPWFAYWGQGTLVTVSA
VL: NIVMTQSPKSMSMSVGERVTLTCKASENVVTYVSWYQQKPEQSPKLLIYGASNRYTGVPDRFTGSGSATDFTLTISSVQAEDLADYHCGQGYSYPYTFGGGTKLEIK
modifications: conjugated to PYR
notes: PYR conjugated with 17.1A monoclonal antibody
[4]
  binding to Colo 320 cells: has bound to the cells
[5]
  photocytotoxicity following irradiation: significant increase in cytotoxicity on irradiation
